From publication PMC10878246, “Crystal structure and biochemical activity of the macrodomain from rubella virus p150” (Journal of virology, 2024)

Target: T1, RuV macrodomain (macrodomain from rubella virus p150) (Rubella virus, UniProt G3M8F4)
T1 construct: gene NSP; macrodomain, p150 residues 805-983 (p150 is cut from nonstructural polyprotein p200); pET24a, C-terminal His6 tag, no tag cleavage described; E. coli BL21(DE3)
Test: isothermal titration calorimetry
Type: binding
Conditions: 20 mM HEPES pH 8, 0.15 M NaCl, 25 °C; 1:1 single-site; crystal structure by soaking with 2 mM ADP-ribose

With Nc1ncnc2c1ncn2[C@@H]1O[C@H](COP(=O)(O)OP(=O)(O)OC[C@H]2OC(O)[C@H](O)[C@@H]2O)[C@@H](O)[C@H]1O (stereo partly shown) [ADP-ribose] the Kd was 58.1 ± 5.4 µM.
